Assay results published in patent US20160166536A1, “COMBINATION THERAPY FOR THE TREATMENT OF CANCER” (NORTHWESTERN UNIVERSITY, priority 2014, published 2016).

Assays:
Assay type in all cases: cell-based
[1] = tested on: MDA-MB-231 cells; test: MTS proliferation assay, MDA-MB-231 cells on tissue culture plates (2D TCPS); settings: 48 h
Method: To evaluate the effectiveness of Eribulin and CYC065 in inhibiting tumor cell proliferation of triple-negative breast cancer cells, the breast cancer cell line MDA-MB-231 having the triple-negative phenotype was tested. MDA-MB-231 cells were seeded on tissue culture plates and cultured for ˜18 h. Cells were treated with different doses of either drug [Eribulin (0.1 nM-100 nM); CYC065 (50 nM-1000 nM)] for 48 h. Proliferation was quantified using the MTS assay.
(§1) The ability of a composition including Eribulin and CYC065 to inhibit inhibiting tumor cell proliferation of triple-negative breast cancer cells was evaluated in three different cell lines having the triple-negative phenotype: MDA-MB-231 (FIG. 2A), […] (FIG. 2B) and MDA-MB-436 (FIG. 2C). The cells were seeded on tissue culture plates and cultured for ˜18 h. The cells were then contacted with 300 nM CYC065 alone, 5 nM Eribulin alone or a combination of 300 nM CYC065 and 5 nM Eribulin for 48 h.
MDA-MB-231 cells were seeded on 2D TCPS at 5000 cells/well and cultured for ˜18 h. […] Proliferation was quantified using the MTS assay.
MDA-MB-231, HS-578T and MDA-MB-436 cells lines were seeded on TCPS at 5000 cells/well and cultured for ˜18 h. […] Proliferation was quantified using the MTS assay. […] (N≧4 for all groups.) Data was analyzed using one-way ANOVA and comparison between groups post ANOVA was performed using Tukey HSD test.

[2] = tested on: MDA-MB-436 cells; test: MTS proliferation assay, MDA-MB-436 cells on TCPS; settings: 300 nM CYC065 alone, 5 nM Eribulin alone or their combination, 48 h, FIG. 2C
Method: as §1
(§2) MDA-MB-231, HS-578T and MDA-MB-436 cells lines were seeded on TCPS at 5000 cells/well and cultured for ˜18 h. They were then treated with 300 nM CYC065 and 5 nM Eribulin or their combination for 48 h. Proliferation was quantified using the MTS assay. […] (N≧4 for all groups.) Data was analyzed using one-way ANOVA and comparison between groups post ANOVA was performed using Tukey HSD test.

[3] = tested on: HS-578T cells; test: MTS proliferation assay, HS-578T cells on TCPS; settings: 300 nM CYC065 alone, 5 nM Eribulin alone or their combination, 48 h, FIG. 2B
Method: as §1, §2

For `C=C1C[C@@H]2CC[C@@]34C[C@H]5O[C@H]6[C@@H](O3)[C@H]3O[C@H](CC[C@@H]3O[C@H]6[C@H]5O4)CC(=O)C[C@@H]3[C@@H](OC)[C@@H](C[C@H](O)CN)O[C@H]3C[C@H]3O[C@@H](CC[C@@H]1O2)C[C@@H](C)C3=C` [Eribulin, 2-(3-Amino-2-hydroxypropyl)hexacosahydro-3-methoxy-26-methyl-20,27-bis(methylene)11,15-18,21-24,28-triepoxy-7,9-ethano-12,15-methano-9H,15H-furo(3,2-i)furo(2′,3′-5,6) pyrano(4,3-b)(1,4)dioxacyclopentacosin-5-(4H)-one], the “inhibition of tumor cell proliferation” value ([1]; 300 nM CYC065 alone, 5 nM Eribulin alone or their combination, FIG. 2A) was “inhibited tumor cell proliferation”, the “inhibition of cell proliferation, dose response” value ([1]; Eribulin 0.1 nM-100 nM, CYC065 50 nM-1000 nM, FIGS. 1A, 1B) was “inhibit proliferation in the nM range” and the “inhibition of tumor cell proliferation” value [2] was “inhibited tumor cell proliferation”. The “inhibition of tumor cell proliferation” value [3] was “inhibited tumor cell proliferation”.
